The nature of data set [1]: Solubility (HPLC quantification of supernatant). The class given is physicochemical. Conditions: thermodynamic from solid, room temperature, stirred about 30 minutes, 100 mg/mL charged. On the procedure: Each (10 mg) of the compounds of the present invention and Earlier Application Compound 14 shown in Table 5 was weighed and placed in a sealable container, and water or 5% glucose solution was added to the container in such an amount as to adjust the final concentration to 100 mg/mL. The contents of the container were stirred at room temperature for about 30 minutes, followed by centrifugation. The compound concentration of the supernatant recovered through centrifugation was quantified through high-performance liquid chromatography.

A short description of data set [2]: Solubility (HPLC quantification of supernatant). The class given is physicochemical. To be noted: saline or isotonic, thermodynamic from solid; physiological saline, room temperature.
The subject of data set [3] is BCRP-gene-transfected human colon cancer HCT116 cells (HCT116/BCRP cells). Put plainly: Effect of overcoming anticancer agent resistance in vivo (oral administration), HCT116/BCRP xenograft with CPT-11. Further details: species or system BALB/c male nude mice. On the procedure: To an inguinal region of each of 6-week-old BALB/c male nude mice (5 mice/group), BCRP-gene-transfected human colon cancer HCT116 cells (HCT116/BCRP cells) (obtained from Dr. Yoshikazu Sugimoto, The Cancer Chemotherapy Center of Japanese Foundation for Cancer Research) were subcutaneously transplanted (2×10^6 cells/0.1 mL/mouse). When the tumor volume as estimated from (1/2)ab^2 (a: longer tumor diameter, b: shorter tumor diameter) reached about 100 to 150 mm^3, each of the compounds of the present invention shown in Tables 1 to 4 and a positive control compound (i.e., Compound 14 ((Z)-2-(3,4-dimethoxy-phenyl)-3-{5-[4-(2-hydroxy-ethyl)-piperazin-1-yl]-thiophen-2-yl}-acrylonitrile hydrochloride)), disclosed in Patent Document 3 (WO 2006/106778)) (hereinafter referred to as Earlier Application Compound 14) was orally administered once a day for nine days (9 times in total). […] The dose of each of the compounds of the present invention was adjusted to 0.20 or 0.40 mmol/kg/day, and that of the positive control compound was adjusted to 0.23 or 0.46 mmol/kg/day. For administration, Compound 3 or 5 of the present invention was dissolved in 5% glucose solution, and Compound 4 or 6 was dissolved in Britton-Robinson buffer. […] A solvent was solely administered to a control group. On day 21 from start of administration, a tumor was extirpated from each mouse and weighed, and the tumor growth inhibition ratio IR (%) was derived from the following equation:
Tumor growth inhibition ratio IR (%)=(1−average tumor weight of each administration group/average tumor weight of control group)×100.

Setting [4] is: saline or isotonic, 5% glucose solution, read-out: Solubility in 5% glucose.
Where [5] appears, read: water, read-out: Solubility in water.
The mark [6] stands for this setting: compound 0.20 mmol/kg/day oral once a day for nine days + CPT-11 45 mg/kg/day i.v. day 1, 5, 9, day 21, vs control group.
Where [7] appears, read: compound 0.20 mmol/kg/day oral once a day for nine days + CPT-11 45 mg/kg/day i.v. day 1, 5, 9, tumor weighed day 21.
Setting [8] is: compound 0.40 mmol/kg/day oral once a day for nine days + CPT-11 45 mg/kg/day i.v. day 1, 5, 9, day 21, vs control group.
Where [9] appears, read: compound 0.40 mmol/kg/day oral once a day for nine days + CPT-11 45 mg/kg/day i.v. day 1, 5, 9, tumor weighed day 21.
[10] abbreviates: positive control 100 mg/kg/day (0.23 mmol/kg/day) oral for nine days + CPT-11 45 mg/kg/day i.v. day 1, 5, 9, day 21.
Setting [11] is: positive control 200 mg/kg/day (0.46 mmol/kg/day) oral for nine days + CPT-11 45 mg/kg/day i.v. day 1, 5, 9, day 21.

Read-outs that look alike come from different tables or passages of the source.

A word on the solubility: it is how much of the substance goes into solution per volume. Consider `COc1ccc(/C(C#N)=C/c2ccc(N3CCC(OC(=O)CN4CCC4)CC3)s2)cc1OC.CS(=O)(=O)O` [Compound 8, azetidin-1-yl-acetic acid 1-[5-[(Z)-2-cyano-2-(3,4-dimethoxy-phenyl)-vinyl]-thiophen-2-yl]-piperidin-4-yl ester methanesulfonate], for which the solubility in data set [1] (setting [4]) and in data set [1] (setting [5]) was not below 100 mg/mL each time.

`COc1ccc(/C(C#N)=C/c2ccc(N3CCC(OC(=O)CN4CCCCCC4)CC3)s2)cc1OC.CS(=O)(=O)O` [Compound 16, azepan-1-yl-acetic acid 1-[5-[(Z)-2-cyano-2-(3,4-dimethoxy-phenyl)-vinyl]-thiophen-2-yl]-piperidin-4-yl ester methanesulfonate]: the solubility in data set [1] (setting [4]) and in data set [1] (setting [5]) was not below 100 mg/mL each time.

Turning to `COc1ccc(/C(C#N)=C/c2ccc(N3CCC(OC(=O)CN4CCN(C)CC4)CC3)s2)cc1OC.CS(=O)(=O)O` [Compound 20, (4-methyl-piperazin-1-yl)-acetic acid 1-[5-[(Z)-2-cyano-2-(3,4-dimethoxy-phenyl)-vinyl]-thiophen-2-yl]-piperidin-4-yl ester methanesulfonate], the solubility in data set [1] (setting [4]) was not below 100 mg/mL; in data set [1] (setting [5]), not below 100 mg/mL; in data set [2], 100 mg/mL.

Take `COc1ccc(/C(C#N)=C/c2ccc(N3CCC(OC(=O)CN4CCCC(CO)C4)CC3)s2)cc1OC.CS(=O)(=O)O` (stereo not drawn) [Compound 14, (3-hydroxymethyl-piperidin-1-yl)-acetic acid 1-[5-[(Z)-2-cyano-2-(3,4-dimethoxy-phenyl)-vinyl]-thiophen-2-yl]-piperidin-4-yl ester methanesulfonate]: the solubility in data set [1] (setting [4]) is not below 100 mg/mL; in data set [1] (setting [5]) it was not below 100 mg/mL; in data set [2] it was 100 mg/mL.

Regarding `COc1ccc(/C(C#N)=C/c2ccc(N3CCC(OC(=O)CN4CCC(O)CC4)CC3)s2)cc1OC.Cl` [Compound 4, (4-hydroxy-piperidin-1-yl)-acetic acid 1-[5-[(Z)-2-cyano-2-(3,4-dimethoxy-phenyl)-vinyl]-thiophen-2-yl]-piperidin-4-yl ester hydrochloride], the figures for the “Tumor growth inhibition ratio IR (%)” value in data set [3] (setting [6]) and in data set [3] (setting [8]) were 31.8% and 46.4%, respectively. The “Tumor weight (g) Mean ± S.D.” value in data set [3] (setting [7]) was found to be 0.89 ± 0.09 g; in data set [3] (setting [9]), 0.70 ± 0.11 g.

Consider `COc1ccc(/C(C#N)=C/c2ccc(N3CCC(OC(=O)CN4CCCCC4)CC3)s2)cc1OC.Cl` [Compound 3, piperidin-1-yl-acetic acid 1-[5-[(Z)-2-cyano-2-(3,4-dimethoxy-phenyl)-vinyl]-thiophen-2-yl]-piperidin-4-yl ester hydrochloride], for which the “Tumor growth inhibition ratio IR (%)” value in data set [3] (setting [6]) amounted to 51.9%; in data set [3] (setting [8]) it was 54.7%. The “Tumor weight (g) Mean ± S.D.” value in data set [3] (setting [7]) was 0.73 ± 0.07 g; in data set [3] (setting [9]), 0.65 ± 0.11 g.

On to `COc1ccc(/C(C#N)=C/c2ccc(N3CCC(OC(=O)CN4CCCCCCC4)CC3)s2)cc1OC.CS(=O)(=O)O` [Compound 18, azocan-1-yl-acetic acid 1-[5-[(Z)-2-cyano-2-(3,4-dimethoxy-phenyl)-vinyl]-thiophen-2-yl]-piperidin-4-yl ester methanesulfonate], for which the solubility in data set [1] (setting [4]) and in data set [1] (setting [5]) was not below 100 mg/mL throughout.

On to `COc1ccc(/C(C#N)=C/c2ccc(N3CCC(OC(=O)CN4CCCCC4C)CC3)s2)cc1OC.CS(=O)(=O)O` (stereo not drawn) [Compound 12, (2-methyl-piperidin-1-yl)-acetic acid 1-[5-[(Z)-2-cyano-2-(3,4-dimethoxy-phenyl)-vinyl]-thiophen-2-yl]-piperidin-4-yl ester methanesulfonate], for which the solubility in data set [1] (setting [4]) is not below 100 mg/mL; in data set [1] (setting [5]), not below 100 mg/mL; in data set [2], 100 mg/mL.

Consider `COc1ccc(/C(C#N)=C/c2ccc(N3CCC(OC(=O)CN4CCOCC4)CC3)s2)cc1OC.CS(=O)(=O)O` [Compound 22, morpholin-4-yl-acetic acid 1-[5-[(Z)-2-cyano-2-(3,4-dimethoxy-phenyl)-vinyl]-thiophen-2-yl]-piperidin-4-yl ester methanesulfonate], for which the solubility in data set [1] (setting [4]) and in data set [1] (setting [5]) was not below 100 mg/mL throughout.

Consider `COc1ccc(/C(C#N)=C/c2ccc(N3CCC(OC(=O)CN4CCCCC4)CC3)s2)cc1OC.CS(=O)(=O)O` [Compound 5, piperidin-1-yl-acetic acid 1-[5-[(Z)-2-cyano-2-(3,4-dimethoxy-phenyl)-vinyl]-thiophen-2-yl]-piperidin-4-yl ester methanesulfonate], for which the “Tumor growth inhibition ratio IR (%)” value was found to be 50.9% in data set [3] (setting [6]) and 55.9% in data set [3] (setting [8]). Moreover, the figures for the “Tumor weight (g) Mean ± S.D.” value in data set [3] (setting [7]) and in data set [3] (setting [9]) were 0.73 ± 0.12 g and 0.65 ± 0.16 g, respectively. Further, the solubility was not below 100 mg/mL in data set [1] (setting [4]), not below 100 mg/mL in data set [1] (setting [5]) and 100 mg/mL in data set [2].

As to `COc1ccc(/C(C#N)=C/c2ccc(N3CCN(CCO)CC3)s2)cc1OC.Cl` [EAC 14, (Z)-2-(3,4-dimethoxy-phenyl)-3-{5-[4-(2-hydroxy-ethyl)-piperazin-1-yl]-thiophen-2-yl}-acrylonitrile hydrochloride, reference compound], the “Tumor growth inhibition ratio IR (%)” value worked out at 23.9% in data set [3] (setting [10]) and 35.6% in data set [3] (setting [11]). Also, the “Tumor weight (g) Mean ± S.D.” value in data set [3] (setting [10]) was 1.04 ± 0.17 g; in data set [3] (setting [11]), 0.88 ± 0.14 g. In addition, the figures for the solubility in data set [1] (setting [4]), in data set [1] (setting [5]) and in data set [2] were 6.6 mg/mL, 6.6 mg/mL and less than 1 mg/mL, respectively.

Consider `COc1ccc(/C(C#N)=C/c2ccc(N3CCC(OC(=O)CN4CCC(O)CC4)CC3)s2)cc1OC.CS(=O)(=O)O` [Compound 6, (4-hydroxy-piperidin-1-yl)-acetic acid 1-[5-[(Z)-2-cyano-2-(3,4-dimethoxy-phenyl)-vinyl]-thiophen-2-yl]-piperidin-4-yl ester methanesulfonate], for which the “Tumor growth inhibition ratio IR (%)” value in data set [3] (setting [6]) stood at 36.9%; in data set [3] (setting [8]) it was 41.8%. Further, the “Tumor weight (g) Mean ± S.D.” value in data set [3] (setting [7]) was 0.82 ± 0.04 g; in data set [3] (setting [9]), 0.76 ± 0.09 g.

In the case of `COc1ccc(/C(C#N)=C/c2ccc(N3CCC(OC(=O)CN4CCCC4)CC3)s2)cc1OC.CS(=O)(=O)O` [Compound 10, pyrrolidin-1-yl-acetic acid 1-[5-[(Z)-2-cyano-2-(3,4-dimethoxy-phenyl)-vinyl]-thiophen-2-yl]-piperidin-4-yl ester methanesulfonate], the solubility in data set [1] (setting [4]) and in data set [1] (setting [5]) was not below 100 mg/mL throughout.

(Values after patent US20100249089A1, “ABCG2 INHIBITOR” (KABUSHIKI KAISHA YAKULT HONSHA, priority 2007, published 2010).)
